Patent US10995101B2, “2-oxo-thiazole derivatives as A2A inhibitors and compounds for use in the treatment of cancers” (iTeos Therapeutics SA, priority 2017, dated 2021)

What was measured:
in vitro = conditions: human, Caco-2, pH 7.4
A2A receptor = A2A receptor (Homo sapiens, UniProt P29274); experiment: Inhibition of cAMP production in HEK cells; type: cell-based; conditions: HEK-293 cells with A2A receptor
[1] = IC50 (nM) (3 nM NECA as agonist, 0.1% BSA), 3 nM NECA as agonist, 0.1% BSA
[2] = IC50 (nM) (5 μM Adenosine as agonist, 2.0% HSA), 5 μM Adenosine as agonist, 2.0% HSA

Sequence of A2A receptor (P29274 whole entry): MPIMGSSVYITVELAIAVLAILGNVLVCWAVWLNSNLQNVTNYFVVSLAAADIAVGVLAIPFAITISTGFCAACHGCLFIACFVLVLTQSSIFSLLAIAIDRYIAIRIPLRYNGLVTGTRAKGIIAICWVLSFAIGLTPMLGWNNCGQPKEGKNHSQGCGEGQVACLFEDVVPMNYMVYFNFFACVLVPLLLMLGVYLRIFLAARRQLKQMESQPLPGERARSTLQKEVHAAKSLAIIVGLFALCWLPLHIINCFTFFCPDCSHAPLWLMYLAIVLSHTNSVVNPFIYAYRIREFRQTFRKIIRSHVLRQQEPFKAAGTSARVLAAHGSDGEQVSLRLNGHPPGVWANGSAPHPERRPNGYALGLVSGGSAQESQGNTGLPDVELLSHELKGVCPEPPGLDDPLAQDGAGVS

Structure (SMILES)	efflux ratio at 120 min, 2 μM (in vitro)	IC50 (A2A receptor; [1]) [nM]	IC50 (A2A receptor; [2]) [nM]
Nc1nc2c(sc(=O)n2CCN2CCN(c3cc(C(=O)NCC4COCCN4)c(F)cc3F)CC2)c2nc(-c3ccco3)nn12 (centres unmarked) [Compound 98, 5-(4-(2-(5-amino-8-(furan-2-yl)-2-oxothiazolo[5,4-e][1,2,4]triazolo[1,5-c]pyrimidin-3(2H)-yl)ethyl)piperazin-1-yl)-2,4-difluoro-N-(morpholin-3-ylmethyl)benzamide]	53	0.1	7
Nc1nc2c(sc(=O)n2CCN2CCN(c3ccc(OCC4COCCN4)cc3F)CC2)c2nc(-c3ccco3)nn12 (centres unmarked) [Compound 99, 5-amino-3-(2-(4-(2-fluoro-4-(morpholin-3-ylmethoxy)phenyl)piperazin-1-yl)ethyl)-8-(furan-2-yl)thiazolo[5,4-e][1,2,4]triazolo[1,5-c]pyrimidin-2(3H)-one]	13	0.5	64
Nc1nc2c(sc(=O)n2CCN2CCN(c3ccc(OCC4CNCCO4)cc3F)CC2)c2nc(-c3ccco3)nn12 (centres unmarked) [Compound 100, 5-amino-3-(2-(4-(2-fluoro-4-(morpholin-2-ylmethoxy)phenyl)piperazin-1-yl)ethyl)-8-(furan-2-yl)thiazolo[5,4-e][1,2,4]triazolo[1,5-c]pyrimidin-2(3H)-one]	66	0.1	10
Nc1nc2c(sc(=O)n2CCN2CCN(c3ccc(O[C@@H]4CNC[C@H]4F)cc3F)CC2)c2nc(-c3ccco3)nn12 [Compound 101, 5-amino-3-(2-(4-(2-fluoro-4-(((3R,4R)-4-fluoropyrrolidin-3-yl)oxy)phenyl)piperazin-1-yl)ethyl)-8-(furan-2-yl)thiazolo[5,4-e][1,2,4]triazolo[1,5-c]pyrimidin-2(3H)-one]	81	0.7	124
Nc1nc2c(sc(=O)n2CCN2CCN(c3ccc(O[C@H]4CNC[C@@H]4F)cc3F)CC2)c2nc(-c3ccco3)nn12 [Compound 102, 5-amino-3-(2-(4-(2-fluoro-4-(((3S,4S)-4-fluoropyrrolidin-3-yl)oxy)phenyl)piperazin-1-yl)ethyl)-8-(furan-2-yl)thiazolo[5,4-e][1,2,4]triazolo[1,5-c]pyrimidin-2(3H)-one]	91	0.7	185
Nc1nc2c(sc(=O)n2CCN2CCN(c3ccc(O[C@@H]4CNC[C@@H]4F)cc3F)CC2)c2nc(-c3ccco3)nn12 [Compound 103, 5-amino-3-(2-(4-(2-fluoro-4-(((3R,4S)-4-fluoropyrrolidin-3-yl)oxy)phenyl)piperazin-1-yl)ethyl)-8-(furan-2-yl)thiazolo[5,4-e][1,2,4]triazolo[1,5-c]pyrimidin-2(3H)-one]	20	1.1	–
Nc1nc2c(sc(=O)n2CCN2CCN(c3ccc(O[C@H]4CNC[C@H]4F)cc3F)CC2)c2nc(-c3ccco3)nn12 [Compound 104, 5-amino-3-(2-(4-(2-fluoro-4-(((3S,4R)-4-fluoropyrrolidin-3-yl)oxy)phenyl)piperazin-1-yl)ethyl)-8-(furan-2-yl)thiazolo[5,4-e][1,2,4]triazolo[1,5-c]pyrimidin-2(3H)-one]	20	0.5	45
Nc1nc2c(sc(=O)n2CCN2CCN(c3ccc(C(=O)NCC4COCCN4)cc3F)CC2)c2nc(-c3ccco3)nn12 (centres unmarked) [Compound 107, 4-(4-(2-(5-amino-8-(furan-2-yl)-2-oxothiazolo[5,4-e][1,2,4]triazolo[1,5-c]pyrimidin-3(2H)-yl)ethyl)piperazin-1-yl)-3-fluoro-N-(morpholin-3-ylmethyl)benzamide]	680	0.1	35
Nc1nc2c(sc(=O)n2CCN2CCN(c3ccc(OC4CNC4)cc3)CC2)c2nc(-c3ccco3)nn12 [Compound 108, 5-amino-3-(2-(4-(4-(azetidin-3-yloxy)phenyl)piperazin-1-yl)ethyl)-8-(furan-2-yl)thiazolo[5,4-e][1,2,4]triazolo[1,5-c]pyrimidin-2(3H)-one]	191	0.7	172
Nc1nc2c(sc(=O)n2CCN2CCN(c3cc(O[C@H]4CC[S@@+]([O-])CC4)c(F)cc3F)CC2)c2nc(-c3ccco3)nn12 [Compound 111, 5-amino-3-(2-(4-(2,4-difluoro-5-(((1s,4s)-1-oxidotetrahydro-2H-thiopyran-4-yl)oxy)phenyl)piperazin-1-yl)ethyl)-8-(furan-2-yl)thiazolo[5,4-e][1,2,4]triazolo[1,5-c]pyrimidin-2(3H)-one]	583	0.6	91
Nc1nc2c(sc(=O)n2CCN2CCN(c3cc(O[C@H]4CC[S@+]([O-])CC4)c(F)cc3F)CC2)c2nc(-c3ccco3)nn12 [Compound 112, 5-amino-3-(2-(4-(2,4-difluoro-5-(((1r,4r)-1-oxidotetrahydro-2H-thiopyran-4-yl)oxy)phenyl)piperazin-1-yl)ethyl)-8-(furan-2-yl)thiazolo[5,4-e][1,2,4]triazolo[1,5-c]pyrimidin-2(3H)-one]	605	0.8	53
C[S@+]([O-])CCNC(=O)c1cc(N2CCN(CCn3c(=O)sc4c3nc(N)n3nc(-c5ccco5)nc43)CC2)c(F)cc1F [Compound 113, (S)-5-(4-(2-(5-amino-8-(furan-2-yl)-2-oxothiazolo[5,4-e][1,2,4]triazolo[1,5-c]pyrimidin-3(2H)-yl)ethyl)piperazin-1-yl)-2,4-difluoro-N-(2-(methylsulfinyl)ethyl)benzamide]	374	0.4	37
C[S@@+]([O-])CCNC(=O)c1cc(N2CCN(CCn3c(=O)sc4c3nc(N)n3nc(-c5ccco5)nc43)CC2)c(F)cc1F [Compound 114, (R)-5-(4-(2-(5-amino-8-(furan-2-yl)-2-oxothiazolo[5,4-e][1,2,4]triazolo[1,5-c]pyrimidin-3(2H)-yl)ethyl)piperazin-1-yl)-2,4-difluoro-N-(2-(methylsulfinyl)ethyl)benzamide]	403	0.3	80
CN(CC[S@@+](C)[O-])C(=O)c1cc(N2CCN(CCn3c(=O)sc4c3nc(N)n3nc(-c5ccco5)nc43)CC2)c(F)cc1F [Compound 116, (R)-5-(4-(2-(5-amino-8-(furan-2-yl)-2-oxothiazolo[5,4-e][1,2,4]triazolo[1,5-c]pyrimidin-3(2H)-yl)ethyl)piperazin-1-yl)-2,4-difluoro-N-methyl-N-(2-(methylsulfinyl)ethyl)benzamide]	421	1.2	245
Nc1nc2c(sc(=O)n2CCN2CCN(c3cc(C(=O)N4CC[S+]([O-])CC4)c(F)cc3F)CC2)c2nc(-c3ccco3)nn12 [Compound 117, 5-amino-3-(2-(4-(2,4-difluoro-5-(1-oxidothiomorpholine-4-carbonyl)phenyl)piperazin-1-yl)ethyl)-8-(furan-2-yl)thiazolo[5,4-e][1,2,4]triazolo[1,5-c]pyrimidin-2(3H)-one]	12	329	3160
C[S@+]([O-])CCNC(=O)c1ccc(N2CCN(CCn3c(=O)sc4c3nc(N)n3nc(-c5ccco5)nc43)CC2)c(F)c1 [Compound 123, (S)-4-(4-(2-(5-amino-8-(furan-2-yl)-2-oxothiazolo[5,4-e][1,2,4]triazolo[1,5-c]pyrimidin-3(2H)-yl)ethyl)piperazin-1-yl)-3-fluoro-N-(2-(methylsulfinyl)ethyl)benzamide]	120	1.5	1440
C[S@@+]([O-])CCNC(=O)c1ccc(N2CCN(CCn3c(=O)sc4c3nc(N)n3nc(-c5ccco5)nc43)CC2)c(F)c1 [Compound 124, (R)-4-(4-(2-(5-amino-8-(furan-2-yl)-2-oxothiazolo[5,4-e][1,2,4]triazolo[1,5-c]pyrimidin-3(2H)-yl)ethyl)piperazin-1-yl)-3-fluoro-N-(2-(methylsulfinyl)ethyl)benzamide]	54	2.3	2040
Nc1nc2c(sc(=O)n2CCN2CCN(c3ccc(C(=O)N4CC[S+]([O-])CC4)cc3F)CC2)c2nc(-c3ccco3)nn12 [Compound 125, 5-amino-3-(2-(4-(2-fluoro-4-(1-oxidothiomorpholine-4-carbonyl)phenyl)piperazin-1-yl)ethyl)-8-(furan-2-yl)thiazolo[5,4-e][1,2,4]triazolo[1,5-c]pyrimidin-2(3H)-one]	127	2.6	3620
Nc1nc2c(sc(=O)n2CCN2CCN(c3ccc(N4CC[S+]([O-])CC4)cc3F)CC2)c2nc(-c3ccco3)nn12 [Compound 126, 5-amino-3-(2-(4-(2-fluoro-4-(1-oxidothiomorpholino)phenyl)piperazin-1-yl)ethyl)-8-(furan-2-yl)thiazolo[5,4-e][1,2,4]triazolo[1,5-c]pyrimidin-2(3H)-one]	83	0.6	78
Nc1nc2c(sc(=O)n2CCN2CCN(c3cc(OC[C@H](O)CO)c(F)cc3F)CC2)c2nc(-c3ccco3)nn12 [Compound 128, (R)-5-amino-3-(2-(4-(5-(2,3-dihydroxypropoxy)-2,4-difluorophenyl)piperazin-1-yl)ethyl)-8-(furan-2-yl)thiazolo[5,4-e][1,2,4]triazolo[1,5-c]pyrimidin-2(3H)-one]	419	0.4	46
